Experiments:
[1] = system: human airway smooth muscle cells; assay: Hex A-induced mitogenesis in human airway smooth muscle cells (MTT); format: cell-based; details: mannan 0.1-1 mg/ml 30 min before 50 nM Hex A, 42 h, human ASMC
Method: (§1) Cell counts and cytotoxicity are assessed by tetrazolium salt reduction (MTT) […] assay in parallel experiments. Millipore filtered MTT (5 mg/ml, Sigma Chemical Co., St Louis, Mo.) dissolved in phosphate buffered saline (PBS, pH 7.2) is added to the microtiter wells (10 μl/well, 20 μl/16 mm well) at the end of the experimental period. After incubating at 37° C. for 4 h, media is removed from the microtiter wells and acidified with 0.04 M HCl. 2-propane/isopropanol is added to the wells at 200 μl/well or 400 μl/16 mm well for human airway smooth muscle cells. The plates are left at room temperature for 30 min and optical density is obtained by an ELISA reader (EL340 Microplate, Bio-Tek instruments, Winooski, Vt.) at 570 nm wave length. The results obtained by MTT assay correlate well with the viable cell counts obtained by the Trypan blue method using hemocytometer (Sigma cell count instruction manual). Cytotoxicity also is measured by LDH assays (Sigma). Release of LDH greater than 5% is considered cytotoxic.
(§2) Human airway smooth muscle cells in 24-well plates were starved for 18h in medium containing 0.1% FBS. Mannan in concentrations ranging from 0.1-1 mg/ml (Sigma) was added to the cells 30 min prior to the addition of 50 nM Hex A, 0.1 nM PDGF or vehicle (PBS for Hex or 0.1% BSA in 4 mM HCl for PDGF). Viable cell numbers were assessed by MTT assays after 42h stimulation. […]

[2] = system: human airway smooth muscle cells; assay: PDGF-induced mitogenesis in human airway smooth muscle cells (MTT); format: cell-based; details: mannan 0.1-1 mg/ml 30 min before 0.1 nM PDGF, 42 h, human ASMC
Method: as §1, §2

[3] = system: TNFα secretion, Hex secretion in BAL fluids; assay: TNFα and Hex secretion in BAL fluids, OVA-sensitized murine model; format: in vivo, mouse; details: aerosolized mannan pretreatment, day 31
Method: The activities of Hex are determined as previously described (Lew et al., 1991). Samples (50 μl) are incubated with 100 μl of pre-warmed buffered substrate (5 mM p-nitrophenyl-2-deoxy-β-D-glucosaminide in 0.1 M citrate/phoshate buffer, pH 4.5) in 96-well microtirter plates for 1 h at 37° C. After incubation, the reactions are stopped by the addition of 100 μl of 0.5 M boric acid/NaOH buffer, pH 10.6. p-nitrophenol released by the hydrolytic activity is quantified spectrophotometrically by using a Biotek ELISA reader at 405 nm wave length. The Beer-Lambert Law and molecular extinction coefficient for p-nitrophenol (E=18,700) are applied to obtain units of specific activity expressed as micromoles of substrate cleaved/h/10^6 cells. Purified Hex (Sigma) is tested in each assay as a positive internal control.
Immediately after measuring MCh responsiveness, animals are anesthetized with Ketamine/Xylazine at 50/50 mg/kg and lungs are lavaged once via tracheal tube with 1 ml phosphate buffered saline (PBS, 37° C.). The broncho alveolar lavage_fluid is analyzed for Hex activity and differential cell count. Hex activity in broncho alveolar lavage_fluids is 262±33 μmoles/hr in immunized mice versus 92±12 in non-immunized mice.
Experiments were performed in quadruplicate and repeated four times.
Histopathology and immunohistology were performed on lungs and airways.

[4] = system: OVA-sensitized wild type FVB/N mice
Method: Enhanced pause (Penh) is measured using the software provided by the manufacturer.
Wild type FVB/N mice, ages 6-8 weeks, were immunized with ovalbumin (20 μg in Imject®-Alum, i.p.) on days 0, 14, 21 as described in Example 6. Non-immunized mice received i.p. injection of Alum only. Thirty minutes before each of the three ovalbumin challenges on days 28-30, the mice were pretreated via aerosol with 100 or 300 mg yeast mannan in 2 ml dH2O or 5 EU E. Coli endotoxin (Sigma Chemical Co., St Louis, Mo.) in 2 ml saline. Experiments were performed in quadruplicate and repeated four times.
Measurements of airway hyper-reactivity (AHR) and broncho alveolar lavage were performed on day 31.
Methacholine sensitivity and reactivity were measured by Penh parameter in spontaneously breathing animals on day 31 (FIG. 9).

[5] = system: bovine airway smooth muscle cells; assay: Hex A-induced mitogenesis in bovine airway smooth muscle cells; format: cell-based; details: bovine ASMC
Method: Measurement of ^3H-thymidine incorporation as an assessment of the rate of DNA synthesis is performed as described previously (Lew et al., 1994) with a modification. After the cells reach confluency and contact-inhibited in microtiter wells (16 mm wells for human airway smooth muscle cells), the medium is replaced with medium M199 (Cellgro, Mediatech, Washington D.C.) or SmBM (for huASMC) containing 0.1% vol/vol fetal bovine serum (FBS, Hyclone Lab. Inc., Logan, Utah) 48 h before exposure to test substances. ^3H-thymidine (0.5 μCi/well or 2.5 μC/16 mm well, sp act 10 Ci/mmol, Amersham Corp., Arlington Heights, Ill.) is added to the cells 18 h after the addition of test substances and cells are harvested 18 h later. Radioactivity is quantified in a liquid scintillation counter (2000 CA; Packard Instrument Co., Downers Grove, Ill.). Experiments are performed in quadruplicate and repeated 3 times.
Mannan, a polymer of mannose, is a specific mannose receptor blocker.

[6] = system: OVA-sensitized and -challenged mice; assay: Histopathology of trachea and lung, OVA-sensitized murine model; format: in vivo, mouse
[7] = system: human airway smooth muscle cells; assay: Mitogenic effect of growth factors in human airway smooth muscle cells (MTT); format: cell-based; details: for mitogenic response after repeated passages: human ASMC of the same batch, p10
Method: as §1
[…] Cells were stimulated with Hex A (50 nM), PDGF (0.1 nM), EGF (100 nM), bFGF (5 nM), thrombin (Thr, 1 unit/ml), FBS (5% vol/vol), or vehicle (V; PBS for Hex; 0.1% BSA in 4 mM HCl for PDGF; 0.1% BSA for EGF and bFGF; unstimulated for Thr and FBS). Viable cell numbers were assessed by MTT assays after 42 h stimulation. […] Experiments were repeated three times.

[8] = system: bovine airway smooth muscle cells; format: cell-based
Method: as §1
Antisense human airway smooth muscle cell mannose receptor morpholino DNA oligonucleotides (M-oligos, 25 mer, 5 μM) delivered by the scrape method inhibited b hexosaminidase-induced mitogenesis in bovine ASMC by 37% compared to no inhibition by sense M-oligos (data not shown). […]

[9] = system: naive wild type FVB/N mice; assay: Airway hyperreactivity after aerosolized Hex in naive mice (methacholine challenge, Penh); format: in vivo, mouse; details: aerosolized human Hex A 1 mg every other day for 2 weeks, day 15
Method: Six week old FVB/N mice were treated with aerosolized human Hex A (1 mg) or vehicle (PBS) every other day for 2 weeks. On day 15, lung physiology was non-invasively assessed by methacholine (Mch) challenge and changes in pulmonary resistance (pause enhancement, Penh).

In the case of mannan, the “inhibition of Hex A-induced mitogenesis” value [1] is reported as “inhibited by mannan in a concentration dependent manner”, the “inhibitory effect on PDGF-induced mitogenesis” value [2] is reported as “lack of inhibitory effect” and the “induction of Hex secretion in BAL fluids” value [3] is reported as “did not induce”. For the same molecule, the “inhibition of TNFα secretion in BAL fluids” value [3] was 85-100%, the “effect on OVA-induced airway hyper-reactivity (Penh)” value ([4]; aerosol 30 min before each OVA challenge on days 28-30 (mannan 100 or 300 mg, endotoxin 5 EU), measured on day 31) was “Blocks Airway Hyper-Reactivity” and the “duration of the inhibitory effect” value ([4]; after the last dose of aerosolized yeast mannan) was “at least four”. The “general condition of the treated mice” value ([4]; mouse, in vivo) was “remained healthy and active”, the “inhibition of Hex A-induced mitogenesis” value [5] was “inhibited by mannan in a concentration dependent manner” and the “trachea histology (H&E): trachealis muscle and epithelial layer” value ([6]; aerosolized mannan 300 mg) was “Trachealis muscle has normal appearance and the epithelial layer is intact”. The “peribronchiolar cellular infiltration (H&E, lung)” value ([6]; mannan 300 mg pretreated mouse) was “marked decrease in peribronchiolar cellular infiltration in 3 out of 4 bronchioles”.

PDGF [reference compound] was tested, and the “mitogenic response after repeated passages” value (“mitogenic response” for short) [7] was “responded poorly”.

In the case of thrombin [reference compound], the “mitogenic response” value [7] is reported as “responded poorly”.

With Ethoxylated polyethylenimine [EPEI] the “concentration beyond which the delivery system was cytotoxic” value [8] was > 3 μl/ml.

B1: Hex A: human placental b hexosaminidase A (Sigma), lysosomal hydrolase, mannosyl-rich ligand of ASM-MR (protein)
chain 1: TLEKNVLVVSVVTPGCNQLPTLESVENYTLTINDDQCLLLSETVWGALRGLETFSQLVWKSAEGTFFINKTEIEDFPRFPHRGLLLDTSRHYLPLSSILDTLDVMAYNKLNVFHWHLVDDPSFPYESFTFPELMRKGSYNPVTHIYTAQDVKEVIEYARLRGIRVLAEFDTPGHTLSWGPGIPGLLTPCYSGSEPSGTFGPVNPSLNNTYEFMSTFFLEVSSVFPDFYLHLGGDEVDFTCWKSNPEIQDFMRKKGFGEDFKQLESFYIQTLLDIVSSYGKGYVVWQEVFDNKVKIQPDTIIQVWREDIPVNYMKELELVTKAGFRALLSAPWYLNRISYGPDWKDFYIVEPLAFEGTPEQKALVIGGEACMWGEYVDNTNLVPRLWPRAGAVAERLWSNKLTSDLTFAYERLSHFRCELLRRGVQAQPLNVGFCEQEFEQT
chain 2: TQVQQLLVSITLQSECDAFPNISSDESYTLLVKEPVAVLKANRVWGALRGLETFSQLVYQDSYGTFTINESTIIDSPRFSHRGILIDTSRHYLPVKIILKTLDAMAFNKFNVLHWHIVDDQSFPYQSITFPELSNKGSYSLSHVYTPNDVRMVIEYARLRGIRVLPEFDTPGHTLSWGKGQKDLLTPCYSRQNKLDSFGPINPTLNTTYSFLTTFFKEISEVFPDQFIHLGGDEVEFKCWESNPKIQDFMRQKGFGTDFKKLESFYIQKVLDIIATINKGSIVWQEVFDDKAKLAPGTIVEVWKDSAYPEELSRVTASGFPVILSAPWYLDLISYGQDWRKYYKVEPLDFGGTQKQKQLFIGGEACLWGEYVDATNLTPRLWPRASAVGERLWSSKDVRDMDDAYDRLTRHRCRMVERGIAAQPLYAGYCNHENM
B1 was tested, and the “airway hyperreactivity (Penh, methacholine challenge)” value [9] was “increased airway hyperreactivity”, the “mitogenic effect (viable cell numbers, MTT)” value ([7]; Hex A 50 nM, 42 h stimulation, serum-starved cells, passage #5) was “comparable to that of PDGF and fetal bovine serum” and the “mitogenic response” value [7] was “responded poorly”.
